Data: US11618738B2, “Compound and application thereof in treating inflammation or inflammation-related diseases” (SICHUAN CENTER FOR TRANSLATIONAL MEDICINE OF TRADITIONAL …, priority 2017, dated 2023)
Where two headings read alike, the source gives them in different places.

Key:
[1] = test system: acute gouty arthritis in rats induced by sodium urate crystals; experiment: Foot swelling in rats with acute gouty arthritis induced by sodium urate crystals; format: in vivo; settings: for Foot swelling: 16.67 mg/kg once a day, mean ± SD
Protocol: Injecting sodium urate crystals into the joint cavity to establish an acute gouty arthritis model. Its pathological and clinical manifestations are very similar. It is a classic method commonly used in animal experiments to study gouty arthritis. This experiment will explore the effects of UTLOH series drugs on animals with acute gouty arthritis induced by sodium urate.
SPF grade SD rats, half female and half male (200-220 g/mouse), were randomly grouped by weight. The drug was administered once a day, for 3 consecutive days. […] Rats in the normal group were injected with an equal volume of sterile saline to the back of the right ankle joint. The administration was continued after modeling, once a day for 3 consecutive days. The ankle joint and foot volume of the rats in each group were measured respectively before modeling and 2 h, 4 h, 8 h, 24 h and 48 h after modeling.

PGE2 induced by LPS = experiment: Inhibition of LPS-induced PGE2 in RAW 264.7 cells (ELISA); format: cell-based, mice; settings: for PGE2 inhibition rate (in words): same experimental method as Table 1; for PGE2 inhibition (%): RAW 264.7 cells, LPS 100 ng/mL, overnight, test concentration not given
Protocol: (§1) This example is taken from a previous publication by Song et al.^[1]. In brief, mice RAW 264.7 cells were treated with increasing doses of each test compound at 37° C. for 1 hour. Thereafter, the cells were attacked with 20 μL/well of LPS (equivalent to a final concentration of 100 ng/mL). The cells were further incubated overnight at 37° C. A commercial ELISA assay kit obtained from R&D Systems (Minneapolis, Minn.) was used to determine the level of PGE2 in the supernatant, and three parallel experiments were performed. The optical density of each well was measured using a BioTek Epoch microplate reader (Winooski, Vt.) set to 450 nm. The NO study was performed in a similar manner, but Greiss reagent was used to monitor the level of NO, and the results were read at 550 nm.

NO induced by LPS = experiment: Inhibition of LPS-induced NO in RAW 264.7 cells (Greiss reagent); format: cell-based, mice; settings: for IC50: Mus musculus, RAW264.7
Source text: Nitric oxide (NO) is a signaling molecule that plays a key role in the pathogenesis of inflammation. Under abnormal conditions, NO is a pro-inflammatory mediator that causes inflammation due to its overproduction. Therefore, the regulation of elevated NO levels by stimulants (such as LPS) has been widely used as a screening method to identify anti-inflammatory drugs. Since NO is oxidized into nitrite and nitrate, the determination of total NO2^−/NO3^− is a conventional method for determining NO levels, and Griess reagent is usually used in this type of experiment.
as §1

[2] = test system: 10% egg white-induced foot swelling in rats; experiment: 10% egg white-induced foot swelling in rats; format: in vivo; settings: for Foot swelling: 6.67 mg/kg gavage once a day for 3 days, mean ± SD
Source text: Injecting 10% egg white into rat paws can cause early acute inflammation such as redness, heat, swelling, and pain in rat paws. In this experiment, the anti-inflammatory effects of UTLOH series compounds were observed by the degree of swelling of the paws of rats after inflammation.
SPF grade SD rats, half female and half male (100-120 g/mouse) were randomly grouped according to body weight. Each group was given the corresponding drugs by gavage, once a day, for 3 consecutive days, with a gavage volume of 1 ml/100 g. Before the experiment, the ankle joint of the right hind foot of each group of rats was marked, and the foot volume of each group of rats was measured twice with a rat foot volume meter, and the average of the two times was taken as the […]. 30 minutes after the last administration, the rats in each group were given a subcutaneous needle in the right hind paw, and injected with 10% fresh egg white solution 0.1 ml/mouse to cause inflammation, establishing a rat model of paw swelling. The post-inflamed foot volume in mice was measured twice at 1 h, 2 h, 3 h, and 4 h after inflammation, and the average of the two times was taken as the post-inflamed foot volume. The normal group was given 1 ml/100 g volume of 0.5% CMC-Na solution by gavage according to body weight.

[3] = same method as Table 1, given as 10-50 μM, or <10 μM, read-out: IC50 of NO
[4] = RAW 264.7 cells, LPS 100 ng/mL, overnight, read-out: NO IC50 (μM), class
[5] = RAW 264.7 cells, LPS 100 ng/mL, overnight, read-out: NO IC50 (μM), value in brackets

SMILES | IC50 (NO induced by LPS; [3]) [µM] | IC50 (NO induced by LPS; [4]) [µM] | IC50 (NO induced by LPS; [5]) [µM] | PGE2 inhibition rate (in words) (PGE2 induced by LPS) | PGE2 inhibition (%) (PGE2 induced by LPS) | further results
COc1cc2c(c(OC)c1OC)-c1ccc(OC)c(=O)cc1[C@@H](NC(C)=O)CC2 [Colchicine, reference compound] | – | – | – | – | – | Foot swelling ([1]; 2 h after modeling): 0.16 ± 0.12 mL; Foot swelling ([1]; 4 h after modeling): 0.21 ± 0.10 mL; Foot swelling ([1]; 8 h after modeling): 0.19 ± 0.10 mL; Foot swelling ([1]; 24 h after modeling): 0.20 ± 0.10 mL; Foot swelling ([1]; 48 h after modeling): 0.07 ± 0.09 mL; degree of foot swelling versus model group (in words) ([1]; gavage, at each time point): significantly lower
Cc1cc(C(=O)Nc2ccc(O)cc2)no1 [UTLOH-4c] | – | < 10 | 6.3 | – | 73.1 | inhibition on PGE2 compared to leflunomide (in words) (PGE2 induced by LPS; compared to leflunomide): stronger; inhibition of LPS-induced NO compared with leflunomide and teriflunomide (in words) (NO induced by LPS; compared with leflunomide and teriflunomide): more strongly
Cc1cc(C(=O)Nc2cccc(O)c2)no1 [UTLOH-4b] | – | < 10 | 7.7 | – | 64.0 | –
Cc1oncc1C(=O)Nc1ccc(C(F)(F)F)cc1 [Leflunomide, reference compound] | – | > 250 | 298 | – | 54.0 | Foot swelling ([2]; 1 h after inflammation): 0.63 ± 0.14 mL; Foot swelling ([2]; 2 h after inflammation): 0.62 ± 0.15 mL; Foot swelling ([2]; 3 h after inflammation): 0.54 ± 0.14 mL; Foot swelling ([2]; 4 h after inflammation): 0.43 ± 0.11 mL; degree of foot swelling compared with the normal group (in words) ([2]; at 1 h and 2 h): significantly reduced
C/C(O)=C(\C#N)C(=O)Nc1ccc(C(F)(F)F)cc1 [Teriflunomide, reference compound] | – | 150 to 250 | 175 | – | 70.2 | –

Continued, in another order:

IC50 (NO induced by LPS; [3]) [µM] | IC50 (NO induced by LPS; [4]) [µM] | IC50 (NO induced by LPS; [5]) [µM] | SMILES | PGE2 inhibition rate (in words) (PGE2 induced by LPS) | PGE2 inhibition (%) (PGE2 induced by LPS) | further results
≤ 50 | – | – | Cc1cc(C(=O)Nc2c(O)cccc2O)no1 [UTLOH-4g] | very good | – | –
≤ 50 | – | – | Cc1cc(C(=O)Nc2c(O)cc(O)cc2O)no1 [UTLOH-4k] | very good | – | –
≤ 50 | – | – | Cc1cc(C(=O)Nc2cc(O)ccc2O)no1 [UTLOH-4f] | very good | – | –
≤ 50 | – | – | Cc1cc(C(=O)Nc2cc(O)cc(O)c2)no1 [UTLOH-4i] | very good | – | –
≤ 50 | – | – | Cc1cc(C(=O)Nc2ccc(O)c(O)c2)no1 [UTLOH-4h] | very good | – | –
≤ 50 | – | – | Cc1cc(C(=O)Nc2cccc(O)c2O)no1 [UTLOH-4d] | very good | – | –
